{
  "source": "patent US9738610B2",
  "about": "“Indazole derivatives and uses thereof” (Whitehead Institute for Biomedical Research, priority 2012, dated 2017)",
  "key": {"[1]": {"system": "C. albicans CaCi-2", "assay": "Secondary single-agent (no-fluconazole) activity assay", "format": "cell-based, Candida albicans", "settings": "for IC50: Candida albicans", "procedure,_shortened": "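C. albicans CaCi-2 in RPMI synthetic defined medium with 1% Pen/Strep, starting OD600 0.00015, exposed to compound alone (no fluconazole) for 48 h at 37 °C without agitation. Growth read as Alamar Blue fluorescence (1:200 final) after 2 h at room temperature.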"}, "[2]": {"assay": "PBS solubility", "settings": "PBS, aqueous buffer"}, "[3]": {"system": "NIH-3T3 mammalian fibroblasts", "assay": "Counterscreen mammalian cell toxicity assay (fibroblast toxicity)", "format": "cell-based, murine", "settings": "for IC50: Mus musculus"}, "[4]": {"system": "C. albicans CaCi-8", "assay": "microbe, parasite or virus in culture", "format": "cell-based, Candida albicans", "settings": "Candida albicans", "procedure,_shortened": "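Hits tested for chemosensitization of the fluconazole-resistant CaCi-8 strain, for inherent antifungal activity without fluconazole, and for mammalian fibroblast toxicity by fluorescence reporter. Geldanamycin plus fluconazole served as positive control; a Saccharomyces assay assigned mechanism to Hsp90, calcineurin or other pathways.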"}, "[5]": {"assay": "Plasma stability", "settings": "% remaining in human plasma after a 5-hour incubation"}, "[6]": {"system": "C. albicans CaCi-2", "assay": "CaCi-2 growth inhibition in the presence of 8 μg/ml fluconazole (Alamar Blue)", "format": "cell-based, Candida albicans", "settings": "Candida albicans"}, "[7]": {"assay": "Plasma protein binding", "settings": "human, plasma"}, "[8]": {"assay": "PBS stability assay", "format": "physicochemical", "settings": "48-hour incubation, 23° C."}},
  "note": "Like-named read-outs stand apart in the source and are kept apart here.",
  "data": [
    {"compound": "COC(=O)Cn1nc(-c2cccc(OC)c2)c2ccccc21", "note": "[Compound I-4, methyl 2-(3-(3-methoxyphenyl)-1H-indazol-1-yl)acetate]", "values": [
      {"measurement": "Dose-dependent activity against C. albicans CaCi-2", "setting": "[1]", "result": "inactive"},
      {"measurement": "IC50", "setting": "[1]; CACI2, read-out: Activity without fluconazole IC50 (nM)", "result": "> 26000", "unit": "nM"},
      {"measurement": "IC50", "setting": "[1]; CACI2, read-out: CaCi-2 IC50 without fluconazole", "result": "> 26000", "unit": "nM"},
      {"measurement": "Fold Selective* (Anti-target IC50/Target IC50)", "setting": "[1]; activity without fluconazole vs CaCi-2 growth inhibition with fluconazole", "result": 59},
      {"measurement": "solubility", "setting": "[2]", "result": "< 1", "unit": "µM"},
      {"measurement": "Dose-dependent activity against murine 3T3 fibroblasts", "setting": "[3]", "result": "inactive"},
      {"measurement": "Mammalian fibroblast IC50 relative to CaCi-2 IC50 with fluconazole", "setting": "[3]", "result": ">59-fold"},
      {"measurement": "IC50", "setting": "[3]; NIH3T3, read-out: Fibroblast toxicity IC50 (nM)", "result": "> 26000", "unit": "nM"},
      {"measurement": "IC50", "setting": "[3]; NIH3T3, read-out: IC50 in the mammalian fibroblast assay", "result": "> 26000", "unit": "nM"},
      {"measurement": "Fold Selective* (Anti-target IC50/Target IC50)", "setting": "[3]; fibroblast toxicity vs CaCi-2 growth inhibition", "result": 59},
      {"measurement": "IC50", "setting": "[4]; CACI8, read-out: CaCi-8 IC50 with 8 μg/ml fluconazole, Table 12", "result": 1200, "unit": "nM"},
      {"measurement": "IC50", "setting": "[4]; CACI8, read-out: CaCi-8 growth inhibition IC50 (nM), in the presence of fluconazole", "result": 1210, "unit": "nM"},
      {"measurement": "Plasma Stability", "setting": "[5]", "result": "approximately 3%"},
      {"measurement": "IC50", "setting": "[6]; CACI2, read-out: CaCi-2 IC50 with 8 μg/ml fluconazole", "result": 440, "unit": "nM"},
      {"measurement": "IC50", "setting": "[6]; CACI2, read-out: CaCi-2 growth inhibition IC50 (nM)", "result": 440, "unit": "nM"},
      {"measurement": "fraction unbound", "setting": "[7]", "result": 0.05},
      {"measurement": "Stability in PBS solution, remaining", "setting": "[8]", "result": "> 99", "unit": "%"}
    ]}
  ]
}
